The values below come from article PMC2858264 (Biochemistry, 2010).

The target of this test is T1, rR-HPCDH1 (Xanthobacter versatilis, UniProt Q56840).
T1 sequence (Q56840 2-250): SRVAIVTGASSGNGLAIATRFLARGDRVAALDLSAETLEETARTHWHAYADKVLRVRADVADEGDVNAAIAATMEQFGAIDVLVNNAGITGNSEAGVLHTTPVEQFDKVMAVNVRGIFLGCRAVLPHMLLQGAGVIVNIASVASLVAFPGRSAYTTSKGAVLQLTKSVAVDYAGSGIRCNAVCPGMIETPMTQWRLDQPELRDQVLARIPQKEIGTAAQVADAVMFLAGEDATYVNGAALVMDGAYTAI
The test can be described thus: NADH absorbance at […] nm, initial rates. Format: biochemical.

By Ki is commonly meant a measure of affinity in units of concentration, obtained from inhibition or displacement. Read a high Ki as weaker binding. As for `CC(C)(O)CSCCS(=O)(=O)O` [M-HPC, 2-(2-methyl-2-hydroxypropylthio)ethanesulfonate], the Ki worked out at 290 ± 14 µM.
